“Also recorded” adds a separate entry of the source.

One experiment relates to hairless mice flank skin. Briefly: Permeability barrier recovery (TEWL) after tape stripping. It counts as in vivo, mouse. Conditions: for permeability barrier recovery after tape stripping (percent recovery of TEWL): single topical application after tape stripping, each reagent 1 mM (FIG. 1 legend), 1, 3 and 6 hours, vs water control. The procedure: All experiments were performed on 7-10-week old male hairless mice (HR-1, Hoshino, Japan). All procedures for measuring of skin barrier function, disrupting the barrier and applying the sample were carried out under anesthesia. All experiments were approved by the Animal Research Committee of the Shiseido Research Center in accordance with the National Research Council Guide. 1-EBIO, diazoxide, gilbenclamide, minoxidil, dequalinium were purchased from Tocris (TOCRIS, Bristol, UK). Valinomycin was purchased from Wako (Wako Osaka, Japan).
(§1) Permeability barrier function was evaluated by measurement of transepidermal water loss (TEWL) with an electric water analyzer, as described previously (Denda, M., Sato J., Masuda Y., Kuramoto M., Elias P. M., Feingold K. R. (1998). J Invest Dermatol 111(5): 858-63). For barrier recovery experiments, both sides of flank skin were treated with repeated tape stripping until the TEWL reached 7-10 mg per cm^2 per h. […] The areas were covered with plastic membranes for 15 min (both treated and control sites) and then the membranes were removed. Previous studies have shown that occlusion for a longer period of time delays barrier repair. […] Two points on one side of a flank were measured and 4-8 mice were used to evaluate the effects of each treatment. We always disrupted the barrier between 7:00AM to 8:00AM to avoid variations in repair rate due to the influence of circadian rhythm. TEWL was then measured over the same sites at 1, 3 and 6 hours after barrier disruption. The barrier recovery results are expressed as percent of recovery, because of variations from day to day in the extent of barrier disruption. In each animal, the percentage of recovery was calculated by the following formula: (TEWL immediately after barrier disruption−TEWL at indicated time point)/(TEWL immediately after barrier disruption−baseline TEWL)×100%). All experiments were performed on 7 to 10-week-old male hairless mice (HR-1, Hoshino, Japan). All procedures including measurement of skin barrier function, disruption of the barrier, and application of test samples were carried out under anesthesia.

Experiment [1] relates to differentiated cultured human keratinocytes (CHK). Briefly: Evaluation of intracellular potassium levels (PBFI-AM fluorescence). It counts as cell-based. Conditions: FIG. 3. The protocol: Evaluation of intracellular potassium levels All in vitro cell culture measurements were carried out using second passage human neonatal keratinocytes. We incubated cells in a low calcium medium (0.1 mM calcium, HuMedia-KG2, KURABO, Osaka, Japan) for at least 5 days and used the cells within 10 days. These keratinocytes were incubated until 100% of confluency, incubated 3 more days, and then incubated in a high calcium medium (1.8 mM calcium) for 24 hours to induce differentiation of the keratinocytes. We then added PBF1-AM (Molecular Probes, Eugene, Oreg.), final concentration 10 μM, and then incubated the cells for 4 hours at 37 C. The cultured keratinocytes were then washed in the medium described above. The cover slip was mounted on a fluorescence microscope (IX70, TS Olympus, Tokyo, Japan) equipped with a 75 W xenon-lamp and band-path filters of 340 nm. Measurements were carried out at the room temperature. Imaging data, recorded by a high-sensitive silicon intensifier target camera (C4742, Hamamatsu Photonics, Hamamatsu, Japan) were recorded by a fluorescence analyzing system (AQUACOSMOS/RATIO1, Hamamatsu Photonics, Hamamatsu, Japan).

For another experiment, the system named is hairless mice epidermis. Put plainly: Epidermal hyperplasia induced by barrier disruption under low humidity. It counts as in vivo, mouse. The procedure:
Animals were kept separately in 7.2 liter cages in which the relative humidity was maintained at less than 10% with dry air as described previously (Denda et al. 1998a). The temperature was the same in all cases (22-25° C.), and fresh air was circulated 100 times per hour. Animals were kept out of the direct stream of air. During the experiments, the animal's behavior was not restricted. The level of NH3 was always below 1 ppm. Animals were first kept in a dry condition for 48 hours and then the skin on both flank sides was treated with acetone-soaked cotton balls, as described previously (Denda et al. 1998a). The procedure was terminated when TEWL reached 2.5-3.5 mg per cm^2 per h. Immediately after the barrier disruption, 100 ul of Diazoxide aqueous solution (100 uM) was applied on one side of the treated area. Water was applied on the other side. Then the animals were again kept in the dry condition for 48 hours. After the experiments, animals were euthanized with diethylether inhalation and skin samples were taken from the treated area. […] On each section, five areas were selected at random; the thickness of the epidermis was measured with an optical micrometer, and the mean value was calculated. […] On each section, five areas were selected at random from one section; the number of immunostained cells per 1 mm of epidermis was counted and the mean value was calculated. […]

Experiment [2] has as its system mouse epidermis (stratum granulosum lamellar bodies). Put plainly: Electron-microscopic study of lamellar body secretion after acetone treatment. It counts as in vivo. The conditions noted are these: one hour after acetone treatment; electron microscopy; FIG. 4. The source says:
The full thickness of skin samples for electron microscopy was minced into pieces (<0.5 mm^3) and fixed in modified Karnovsky's fixative overnight. They were then post-fixed in 2% aqueous osmium tetroxide or 0.2% ruthenium tetroxide as described previously (Denda et al. 1998, op. cit.). After fixation, all samples were dehydrated in graded ethanol solutions, and embedded in an Epon-epoxy mixture. Thin sections were stained with lead citrate and uranyl acetate and viewed by electron microscopy.

The next experiment relates to hairless mouse flanks. Briefly: Permeability barrier recovery (TEWL) after acetone treatment. It is filed as in vivo. Conditions: topical potassium ionophore; FIG. 2B; n=4. The procedure:
as §1, with “[…] Immediately after” for “For”, “disruption 100 μl” for “recovery experiments, both sides”, “an aqueous solution containing 1 μM of reagent or water alone (control) was applied to the” for “flank skin were”, “area.” for “with repeated tape stripping until the TEWL reached 7-10 mg per cm^2 per h.”, “All experiments were performed on 7 to 10-week-old male hairless mice (HR-1, Hoshino, Japan). All procedures including measurement of skin barrier function, disruption of the barrier, and application of test samples were carried out under anesthesia.” left out

Regarding `COc1ccc(Cl)cc1C(=O)NCCc1ccc(S(=O)(=O)NC(=O)NC2CCCCC2)cc1` [gilbenclamide, 5-chloro-N{2-[4[[[cycohexylamino]carbonyl]amino]sulfonyl]phenyl}-2-metyhoxybenzamide], in the experiment on hairless mice flank skin, the “permeability barrier recovery after tape stripping (percent recovery of TEWL)” value is listed as “significantly delayed barrier recovery”.
As to `CCn1c(=O)[nH]c2ccccc21` [1-EBIO, 1-Ethyl-2-benzoimidazollnone], in experiment [1] (10 μM final concentration), the “change in intracellular potassium (K+) concentration” value (from here on “change in intracellular potassium”) is recorded as “decreased intracellular K^+ concentrations; also recorded: decreased intracellular potassium concentrations”. Also, the “permeability barrier recovery after tape stripping (percent recovery of TEWL)” value with hairless mice flank skin was “significantly accelerated barrier repair; also recorded: accelerated barrier recovery”.
`Cc1cc(N)c2ccccc2[n+]1CCCCCCCCCC[n+]1c(C)cc(N)c2ccccc21` [dequalinium, 1,1-(1,10-Decanedyl)bis(4-amino-2-methylquinolinium)dichloride]: the “permeability barrier recovery after tape stripping (percent recovery of TEWL)” value with hairless mice flank skin is reported as “significantly delayed barrier recovery”.
As to `CC1=Nc2ccc(Cl)cc2S(=O)(=O)N1` [diazoxide, 7-chloro-3-methyl-2H-1,2,4-benzothiadiazine 1,1-dioxide], the “epidermal hyperplasia induced by acetone treatment under low humidity” value with hairless mice epidermis (topical 100 uM aqueous solution, 48 hours dry condition, vs water, FIG. 5) was “prevented the epidermal hyperplasia”. Besides, the “epidermal proliferation (BrdU positive cells), quantified” value in the experiment with hairless mice epidermis (topical 100 uM, FIG. 6, 6 control mice and 5 treated, ANOVA probability 0.0372) is “Significant reductions of epidermal proliferation”. Further, the “change in intracellular potassium” value in experiment [1] (10 μM final concentration) is “decreased intracellular K^+ concentrations; also recorded: decreased intracellular potassium concentrations”. For the same molecule, the “permeability barrier recovery after tape stripping (percent recovery of TEWL)” value in the experiment with hairless mice flank skin is “significantly accelerated barrier repair; also recorded: accelerated barrier recovery”. In experiment [2], the “lamellar body (LB) secretion at SG-SC interface” value is given as “much more secreted material is evident at SG-SC interface; also recorded: accelerated the secretion of LB”.
On to `CC(C)[C@@H]1NC(=O)[C@H](C)OC(=O)[C@@H](C(C)C)NC(=O)[C@@H](C(C)C)OC(=O)[C@H](C(C)C)NC(=O)[C@H](C)OC(=O)[C@@H](C(C)C)NC(=O)[C@@H](C(C)C)OC(=O)[C@H](C(C)C)NC(=O)[C@H](C)OC(=O)[C@@H](C(C)C)NC(=O)[C@@H](C(C)C)OC1=O` [valinomycin], for which the “change in intracellular potassium” value in experiment [1] (1 μM final concentration) is “decreased intracellular K^+ concentrations; also recorded: decreased intracellular potassium concentrations”. Besides, the “permeability barrier recovery after tape stripping” value in the experiment with hairless mice flank skin (topical potassium ionophore, FIG. 2A, n=4) was “accelerated barrier recovery”. The “lamellar body (LB) secretion at SG-SC interface” value in experiment [2] is reported as “much more secreted material is evident at SG-SC interface; also recorded: accelerated the secretion of LB”. The “permeability barrier recovery after acetone treatment” value in the experiment on hairless mouse flanks is listed as “accelerated barrier recovery”.
